The values below are quoted from earlier work in patent publication US20140004186A1, “COMPOSITIONS COMPRISING A FATTY ACID OIL MIXTURE COMPRISING EPA AND DHA IN FREE ACID FORM, A SURFACTANT, AND A STATIN” (Pronova Biopharma Norge AS, priority 2010, published 2014).

For data set [1] the following is noted: Table 7, other surfactants.

In the case of `CC(O)CO.CCCCCCCCCCCCCCCCCC(=O)O` [Propylene glycol monostearate], the “HBL Value” in data set [1] was 3.4.
Turning to `CC[C@H](C)C(=O)O[C@H]1C[C@H](O)C=C2C=C[C@H](C)[C@H](CC[C@@H](O)C[C@@H](O)CC(=O)O)[C@H]21` [pravastatin], the oral bioavailability is on record as 18%.
On to `CC(C)c1nc(N(C)S(C)(=O)=O)nc(-c2ccc(F)cc2)c1/C=C/[C@@H](O)C[C@@H](O)CC(=O)O` [rosuvastatin], for which the oral bioavailability is reported as 20%.
